Experimental data reported in patent publication US10709709B2, “Substituted carbonucleoside derivatives useful as anticancer agents” (Pfizer Inc., priority 2016, dated 2020).

What follows are compounds tested against PRMT5/MEP50 protein complex (Homo sapiens (Human), UniProt O14744) (assay: PRMT5 biochemical assay (3H-SAM methylation of H4(1-21) peptide, filter plate scintillation)). Conditions: 10 nM PRMT5/MEP50 complex, 200 nM H4(1-21) peptide, 1 uM SAM, 25 minute incubation at room temperature.
Sequence of PRMT5/MEP50 protein complex (O14744 other isoform, or with tags, fused parts or gaps): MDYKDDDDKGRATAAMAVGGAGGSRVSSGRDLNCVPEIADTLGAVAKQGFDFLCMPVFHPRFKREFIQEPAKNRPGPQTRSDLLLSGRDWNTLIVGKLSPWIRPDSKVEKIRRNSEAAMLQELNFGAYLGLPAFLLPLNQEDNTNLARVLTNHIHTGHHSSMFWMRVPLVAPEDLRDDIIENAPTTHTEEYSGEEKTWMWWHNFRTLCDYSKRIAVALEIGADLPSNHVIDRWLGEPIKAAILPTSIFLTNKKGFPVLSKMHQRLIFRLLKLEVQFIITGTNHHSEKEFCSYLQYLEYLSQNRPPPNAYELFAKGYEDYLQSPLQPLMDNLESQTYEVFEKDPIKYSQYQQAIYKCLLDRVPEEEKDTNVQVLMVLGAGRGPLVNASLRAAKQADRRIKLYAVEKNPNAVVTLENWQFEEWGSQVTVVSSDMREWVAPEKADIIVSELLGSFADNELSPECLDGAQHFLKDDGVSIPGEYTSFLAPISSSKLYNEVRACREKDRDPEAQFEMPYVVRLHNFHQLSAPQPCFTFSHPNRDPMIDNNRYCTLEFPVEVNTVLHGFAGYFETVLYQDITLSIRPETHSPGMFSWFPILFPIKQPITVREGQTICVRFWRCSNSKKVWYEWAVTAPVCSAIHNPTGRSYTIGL
Sequence of PRMT5/MEP50 protein complex (Q9BQA1 whole entry partner): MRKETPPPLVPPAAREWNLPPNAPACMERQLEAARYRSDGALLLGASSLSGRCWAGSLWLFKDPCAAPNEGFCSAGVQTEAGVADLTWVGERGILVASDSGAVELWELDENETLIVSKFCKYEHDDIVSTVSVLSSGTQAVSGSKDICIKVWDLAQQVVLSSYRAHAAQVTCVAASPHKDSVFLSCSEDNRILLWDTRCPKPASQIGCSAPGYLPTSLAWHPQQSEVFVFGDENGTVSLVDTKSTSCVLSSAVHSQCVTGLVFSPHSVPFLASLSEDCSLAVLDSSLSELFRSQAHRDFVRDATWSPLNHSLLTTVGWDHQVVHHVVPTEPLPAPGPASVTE
In short: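 Human PRMT5/MEP50 complex (10 nM) methylating H4(1-21) peptide (200 nM) with 3H/unlabelled SAM (1 uM final) in pH 8.5 Tris buffer, 25 min at room temperature. Stopped with TCA, 3H-peptide captured on filter plates and scintillation-counted. IC50 from 4-parameter fit.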
In the case of `CC(F)(F)c1cc2c(c(O[C@H]3C[C@@H](n4cc(F)c5c(N)ncnc54)[C@H](O)[C@@H]3O)c1)CNCC2` [Example 112, (1S,2S,3R,5S)-3-(4-amino-5-fluoro-7H-pyrrolo[2,3-d]pyrimidin-7-yl)-5-((6-(1,1-difluoroethyl)-1,2,3,4-tetrahydroisoquinolin-8-yl)oxy)cyclopentane-1,2-diol], the IC50 is reported as 4 nM. In the case of `O[C@@H]1[C@H](O)[C@@H]([C@H](O)c2ccc(F)c(F)c2)C[C@H]1Nc1ncnc2[nH]ccc12` [Example 27, (1S,2R,3R,5R)-3-[(S)-(3,4-difluorophenyl)(hydroxy)methyl]-5-(7H-pyrrolo[2,3-d]pyrimidin-4-ylamino)cyclopentane-1,2-diol], the IC50 is reported as 449 nM. With `CCOc1cc(O[C@H]2C[C@@H](n3ccc4c(C)ncnc43)[C@H](O)[C@@H]2O)c2c(c1F)CCNC2` [Example 199, (1S,2S,3S,5R)-3-((6-ethoxy-5-fluoro-1,2,3,4-tetrahydroisoquinolin-8-yl)oxy)-5-(4-methyl-7H-pyrrolo[2,3-d]pyrimidin-7-yl)cyclopentane-1,2-diol] the IC50 was 91 nM. Compound `CN(c1ccnc(N)n1)[C@@H]1C[C@H]([C@@H](O)c2ccc(F)c(F)c2)[C@@H](O)[C@H]1O` [Example 40, (1R,2S,3R,5R)-3-[(2-aminopyrimidin-4-yl)(methyl)amino]-5-[(R)-(3,4 difluorophenyl)(hydroxy)methyl] cyclopentane-1,2-diol] has an IC50 of 2040 nM. In the case of `Cc1ncnc2c1ccn2[C@@H]1C[C@H](Oc2cccc3c2CC(N)CO3)[C@@H](O)[C@H]1O` (single isomer, unassigned) [Example 189], the IC50 is reported as 604 nM. `Cc1ncnc2c1ccn2[C@@H]1C[C@H](C2(O)CC2)[C@@H](O)[C@H]1O` [Example 17, (1S,2R,3S,5R)-3-(1-hydroxycyclopropyl)-5-(4-methyl-7H-pyrrolo[2,3-d]pyrimidin-7-yl)cyclopentane-1,2-diol] gave an IC50 of 2770 nM. `Cc1ncnc2c1ccn2[C@@H]1C[C@H](Oc2cccc3c2CN(C)CC3)[C@@H](O)[C@H]1O` [Example 83, (1S,2S,3S,5R)-3-((2-methyl-1,2,3,4-tetrahydroisoquinolin-8-yl)oxy)-5-(4-methyl-7H-pyrrolo[2,3-d]pyrimidin-7-yl)cyclopentane-1,2-diol] gave an IC50 of 20 nM. Compound `Cc1cc(N(C)[C@@H]2C[C@H]([C@H](O)c3ccc(F)c(F)c3)[C@@H](O)[C@H]2O)ncn1` [Example 33, (1S,2R,3R,5R)-3-[(S)-(3,4-difluorophenyl)(hydroxy)methyl]-5-[methyl(6-methylpyrimidin-4-yl)amino] cyclopentane-1,2-diol] has an IC50 of 3580 nM. With `Cc1ncnc2c1ccn2[C@@H]1C[C@H](Oc2cc(Cl)c(Cl)cc2CN)[C@@H](O)[C@H]1O` [Example 147, (1S,2S,3S,5R)-3-(2-(aminomethyl)-4,5-dichlorophenoxy)-5-(4-methyl-7H-pyrrolo[2,3-d]pyrimidin-7-yl)cyclopentane-1,2-diol] the IC50 was 24 nM. `Cc1ncnc2c1ccn2[C@@H]1C[C@H](C(F)(CN)c2ccc(F)cc2)[C@@H](O)[C@H]1O` (stereo partly drawn) [Example 50, (1S,2R,3S,5R)-3-[2-amino-1-fluoro-1-(4-fluorophenyl)ethyl]-5-(4-methyl-7H-pyrrolo[2,3-d]pyrimidin-7-yl)cyclopentane-1,2-diol] was tested, and the IC50 was 18900 nM. `Cc1ncnc2c1ccn2[C@@H]1C[C@H](Oc2cccc3c2CNC[C@@H](C)O3)[C@@H](O)[C@H]1O` [Example 209, (1S,2S,3S,5R)-3-(((R)-2-methyl-2,3,4,5-tetrahydrobenzo[f][1,4]oxazepin-6-yl)oxy)-5-(4-methyl-7H-pyrrolo[2,3-d]pyrimidin-7-yl)cyclopentane-1,2-diol] showed an IC50 of 5 nM. With `Cc1ncnc2c1ccn2[C@@H]1C[C@H](Oc2ccc(F)cc2)[C@@H](O)[C@H]1O` [Example 73, (1S,2S,3S,5R)-3-(4-fluorophenoxy)-5-(4-methyl-7H-pyrrolo[2,3-d]pyrimidin-7-yl)cyclopentane-1,2-diol] the IC50 was 6880 nM.
